# Experimental data: patent US9296723B2, “NAMPT inhibitors” (AbbVie Inc., priority 2012, dated 2016)
# Legend:
# PC3 cells = assay: NAMPT Cell Proliferation Assay (Cell Titer Glo); type: cell-based; conditions: Homo sapiens, PC-3, 120 h, incubated 5 days, cell viability
# Procedure, shortened: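 Viability measured by Cell Titer Glo luminescence after 5-day exposure of attached PC3 cells to compound, dosed as 10-fold serial dilutions ([…]) in RPMI/10% FBS at 37 °C and 5% CO2. Percent inhibition fitted to sigmoidal dose-response curves for IC50.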
# NAMPT [1] = molecular target: T1, NAMPT (Homo sapiens, UniProt P43490); assay: TR-FRET Binding Assay of NAMPT with PRPP; conditions: 2 nM NAMPT, 2 nM probe, 200 µM PRPP and 2.5 mM ATP, equilibrated 16 hours
# Procedure, shortened: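 Substrates present: PRPP at 200 µM and ATP at 2.5 mM, final, alongside 2 nM enzyme, 2 nM tracer and 1 nM terbium anti-His donor in 2% DMSO. A 16-hour equilibration preceded the time-resolved FRET read, allowing compounds to be enzymatically modified.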
# NAMPT [2] = molecular target: T1, NAMPT; assay: Time-Resolved Fluorescence Resonance Energy Transfer (TR-FRET) Binding Assay of NAMPT; conditions: 6.8 nM NAMPT, 200 nM probe, equilibrated 3 hours, no substrates
# Procedure, shortened: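 IC50s come from four-parameter logistic fits of control-normalized Em520/Em495 TR-FRET ratios (Ex 337 nm) against compound concentration. Before reading, enzyme, probe, antibody and compound equilibrated for 3 h at room temperature.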
# T1 sequence (P43490 whole entry): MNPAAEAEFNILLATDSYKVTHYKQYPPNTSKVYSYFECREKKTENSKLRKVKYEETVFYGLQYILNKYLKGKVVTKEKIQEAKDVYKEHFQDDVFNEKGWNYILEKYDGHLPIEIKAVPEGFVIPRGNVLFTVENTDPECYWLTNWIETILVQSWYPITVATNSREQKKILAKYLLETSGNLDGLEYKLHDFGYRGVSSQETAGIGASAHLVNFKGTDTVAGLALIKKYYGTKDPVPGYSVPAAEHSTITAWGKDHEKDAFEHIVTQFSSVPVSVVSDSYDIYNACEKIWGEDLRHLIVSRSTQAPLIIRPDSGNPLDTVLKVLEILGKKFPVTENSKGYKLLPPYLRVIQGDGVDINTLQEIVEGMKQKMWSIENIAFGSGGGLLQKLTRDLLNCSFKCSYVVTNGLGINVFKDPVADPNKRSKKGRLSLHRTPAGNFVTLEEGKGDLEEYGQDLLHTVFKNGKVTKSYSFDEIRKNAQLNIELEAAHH
IC50 (PC3 cells) [nM],IC50 (NAMPT [1]) [nM],IC50 (NAMPT [2]) [nM],Compound
9.83,0.327,18.8,"CCCCC(=O)N1CC(Oc2ccc(NC(=O)N3CC(c4cccnc4)C3)cc2)C1 [Example 117, N-{4-[(1-pentanoylazetidin-3-yl)oxy]phenyl}-3-(pyridin-3-yl)azetidine-1-carboxamide]"
77.7,0.324,36,"COCCOCC(=O)N1CC(Oc2ccc(NC(=O)N3CC(c4cccnc4)C3)cc2)C1 [Example 118, N-[4-({1-[(2-methoxyethoxy)acetyl]azetidin-3-yl}oxy)phenyl]-3-(pyridin-3-yl)azetidine-1-carboxamide]"
76.9,0.978,117,"CCOCC(=O)N1CC(Oc2ccc(NC(=O)N3CC(c4cccnc4)C3)cc2)C1 [Example 119, N-(4-{[1-(ethoxyacetyl)azetidin-3-yl]oxy}phenyl)-3-(pyridin-3-yl)azetidine-1-carboxamide]"
78,0.689,145,"COCC(=O)N1CC(Oc2ccc(NC(=O)N3CC(c4cccnc4)C3)cc2)C1 [Example 120, N-(4-{[1-(methoxyacetyl)azetidin-3-yl]oxy}phenyl)-3-(pyridin-3-yl)azetidine-1-carboxamide]"
7.73,0.497,18.6,"CCC(C)CC(=O)N1CC(Oc2ccc(NC(=O)N3CC(c4cccnc4)C3)cc2)C1 (stereo not drawn) [Example 121, N-(4-{[1-(3-methylpentanoyl)azetidin-3-yl]oxy}phenyl)-3-(pyridin-3-yl)azetidine-1-carboxamide]"
7.75,0.375,14.9,"CC(C)CCC(=O)N1CC(Oc2ccc(NC(=O)N3CC(c4cccnc4)C3)cc2)C1 [Example 124, N-(4-{[1-(4-methylpentanoyl)azetidin-3-yl]oxy}phenyl)-3-(pyridin-3-yl)azetidine-1-carboxamide]"
11.3,0.401,40,"CCCC(=O)N1CC(Oc2ccc(NC(=O)N3CC(c4cccnc4)C3)cc2)C1 [Example 129, N-{4-[(1-butanoylazetidin-3-yl)oxy]phenyl}-3-(pyridin-3-yl)azetidine-1-carboxamide]"
78.7,0.559,84.7,"CCC(=O)N1CC(Oc2ccc(NC(=O)N3CC(c4cccnc4)C3)cc2)C1 [Example 130, N-{4-[(1-propanoylazetidin-3-yl)oxy]phenyl}-3-(pyridin-3-yl)azetidine-1-carboxamide]"
7.77,0.634,19.1,"CC(C)CC(=O)N1CC(Oc2ccc(NC(=O)N3CC(c4cccnc4)C3)cc2)C1 [Example 132, N-(4-{[1-(3-methylbutanoyl)azetidin-3-yl]oxy}phenyl)-3-(pyridin-3-yl)azetidine-1-carboxamide]"
4.43,0.358,13.2,"CC(C)(C)CC(=O)N1CC(Oc2ccc(NC(=O)N3CC(c4cccnc4)C3)cc2)C1 [Example 133, N-(4-{[1-(3,3-dimethylbutanoyl)azetidin-3-yl]oxy}phenyl)-3-(pyridin-3-yl)azetidine-1-carboxamide]"

# The remaining lines, values behind:
Compound,IC50 (PC3 cells) [nM],IC50 (NAMPT [1]) [nM],IC50 (NAMPT [2]) [nM]
"CCCC(=O)N1CC(c2ccc(NC(=O)N3CC(c4cccnc4)C3)cc2)C1 [Example 111, N-[4-(1-butanoylazetidin-3-yl)phenyl]-3-(pyridin-3-yl)azetidine-1-carboxamide]",29.2,0.292,53.9
"CC(C)(C)OC(=O)N1CCC(c2ccc(NC(=O)N3CC(c4cccnc4Cl)C3)cc2)CC1 [Example 112, tert-butyl 4-[4-({[3-(2-chloropyridin-3-yl)azetidin-1-yl]carbonyl}amino)phenyl]piperidine-1-carboxylate]",906,45.9,43.5
"CC(C)(C)OC(=O)N1CCC(c2ccc(NC(=O)N3CC(c4cnccc4Cl)C3)cc2)CC1 [Example 113, tert-butyl 4-[4-({[3-(4-chloropyridin-3-yl)azetidin-1-yl]carbonyl}amino)phenyl]piperidine-1-carboxylate]",113,14.7,75.8
"O=C(CC1CC1)N1CC(Oc2ccc(NC(=O)N3CC(c4cccnc4)C3)cc2)C1 [Example 114, N-(4-{[1-(cyclopropylacetyl)azetidin-3-yl]oxy}phenyl)-3-(pyridin-3-yl)azetidine-1-carboxamide]",8.11,0.189,15.8
"CC(C)(C)OC(=O)N1CCC(c2ccc(NC(=O)N3CC(c4cccnc4F)C3)cc2)CC1 [Example 116, tert-butyl 4-[4-({[3-(2-fluoropyridin-3-yl)azetidin-1-yl]carbonyl}amino)phenyl]piperidine-1-carboxylate]",135,0.744,26.7
"O=C(CC1C[C@@H]2CC[C@H]1C2)N1CC(Oc2ccc(NC(=O)N3CC(c4cccnc4)C3)cc2)C1 (stereo partly drawn) [Example 122, N-[4-({1-[(1S,4R)-bicyclo[2.2.1]hept-2-ylacetyl]azetidin-3-yl}oxy)phenyl]-3-(pyridin-3-yl)azetidine-1-carboxamide]",8.81,0.588,16.6
"CC1CC1C(=O)N1CC(Oc2ccc(NC(=O)N3CC(c4cccnc4)C3)cc2)C1 (stereo not drawn) [Example 125, N-[4-({1-[(2-methylcyclopropyl)carbonyl]azetidin-3-yl}oxy)phenyl]-3-(pyridin-3-yl)azetidine-1-carboxamide]",8.12,0.271,29.3
"O=C(CCC(F)(F)F)N1CC(Oc2ccc(NC(=O)N3CC(c4cccnc4)C3)cc2)C1 [Example 126, 3-(pyridin-3-yl)-N-(4-{[1-(4,4,4-trifluorobutanoyl)azetidin-3-yl]oxy}phenyl)azetidine-1-carboxamide]",7.38,0.401,14.4
"CC(C)C(=O)N1CC(Oc2ccc(NC(=O)N3CC(c4cccnc4)C3)cc2)C1 [Example 127, N-(4-{[1-(2-methylpropanoyl)azetidin-3-yl]oxy}phenyl)-3-(pyridin-3-yl)azetidine-1-carboxamide]",71,0.603,93.4
"CC(C)(C)C(=O)N1CC(Oc2ccc(NC(=O)N3CC(c4cccnc4)C3)cc2)C1 [Example 128, N-(4-{[1-(2,2-dimethylpropanoyl)azetidin-3-yl]oxy}phenyl)-3-(pyridin-3-yl)azetidine-1-carboxamide]",8.36,0.519,30.4
"CCC(C)(C)C(=O)N1CC(Oc2ccc(NC(=O)N3CC(c4cccnc4)C3)cc2)C1 [Example 131, N-(4-{[1-(2,2-dimethylbutanoyl)azetidin-3-yl]oxy}phenyl)-3-(pyridin-3-yl)azetidine-1-carboxamide]",8.18,0.491,7.72
"O=C(CC(F)(F)F)N1CC(Oc2ccc(NC(=O)N3CC(c4cccnc4)C3)cc2)C1 [Example 134, 3-(pyridin-3-yl)-N-(4-{[1-(3,3,3-trifluoropropanoyl)azetidin-3-yl]oxy}phenyl)azetidine-1-carboxamide]",28.3,0.317,54.2
"CC1(C(=O)N2CC(Oc3ccc(NC(=O)N4CC(c5cccnc5)C4)cc3)C2)CC1 [Example 135, N-[4-({1-[(1-methylcyclopropyl)carbonyl]azetidin-3-yl}oxy)phenyl]-3-(pyridin-3-yl)azetidine-1-carboxamide]",8.69,0.376,28.1
